The values below are quoted from earlier work in patent US8236821B2, “Substituted N-phenyl-5-phenyl-pyrazolin-3-yl amides as cannabinoid receptor antagonists/inverse agonists useful for treating obesity” (Jenrin Discovery, Inc., priority 2008, dated 2012).

For the data set the following is noted: type 2 diabetes patients not treated with other anti-diabetic medications; six months of treatment; baseline value 7.9; placebo reduction 0.3%.

`Cc1c(C(=O)NN2CCCCC2)nn(-c2ccc(Cl)cc2Cl)c1-c1ccc(Cl)cc1` [rimonabant]: the HbA1c levels lowered was 0.8%.
